In one test the test system is Helminthosporium sativum. In words: Barley spot blotch, foliar treatment (HEL SAT). It is filed as in vivo. The following applies: foliar, 1,000 mg/l. As for the experimental part:
Compositions containing Compounds Nos. 1-81 were prepared by dissolving 0.24 grams of each of the compounds in 8 ml of acetone or other suitable inert solvent. Each of the resultant solutions was treated with 3 drops of TWEEN 20 (ethoxylated ethylene sorbitan monolaurate, a non-ionic surfactant)(I.C.I.), and water was added to form an emulsion. The degree of dilution with water was dictated by the desired concentration of the compound in the composition. The greater the quantity of water added, the lower the concentration of the compound in the composition, reported in milligrams per liter (mg/l) Ten plants of six day-old Barley (variety "Robust") were planted in each of a plurality of pots. Each pot was then either sprayed with one of the compositions of Example 9, at a concentration of 1,000 mg/l, or left unsprayed. The unsprayed plants were used as controls. An equal number of pots were sprayed and unsprayed. All plants, sprayed and unsprayed, were thereafter inoculated with spores of the blotch fungus Helminthosporium sativum. All inoculated plants were placed in a 99% humidity chamber for 24 hours and then placed in a greenhouse, maintained at a temperature of 21° C., for eight days. […] Percent control was computed and the results are summarized in Table II under the heading "HEL SAT".

The subject of another test is Scierotinia minor. The experiment in a line: Fungal growth inhibition, treated disc on agar (SCL MIN). It is filed as cell-based. To be noted: disc dipped in 500 mg/l, 29° C.
The test system of a further test is Botrytis cinerea. In words: Fungal growth inhibition, treated disc on agar (BOT CIN). In kind it is cell-based. The following applies: disc dipped in 500 mg/l, 29° C.
The subject of another test is Septoria nodorum. The experiment in a line: Fungal growth inhibition, treated disc on agar (SEP NOD). It is filed as cell-based. To be noted: disc dipped in 500 mg/l, 29° C.
The subject of the next test is Fusarium oxysporum. The experiment in a line: Fungal growth inhibition, treated disc on agar (FUS OXY). In kind it is cell-based. The following applies: disc dipped in 500 mg/l, 29° C.
In test [1] the test system is Erysiphe graminis. In words: Powdery mildew in barley, foliar application (ERY GRA). It is filed as in vivo. To be noted: foliar, 1,000 mg/l, 8 days after inoculation. The method, then: (§1) Compositions containing Compounds Nos. 1-81 were prepared by dissolving 0.24 grams of each of the compounds in 8 ml of acetone or other suitable inert solvent. Each of the resultant solutions was treated with 3 drops of TWEEN 20 (ethoxylated ethylene sorbitan monolaurate, a non-ionic surfactant)(I.C.I.), and water was added to form an emulsion. The degree of dilution with water was dictated by the desired concentration of the compound in the composition. The greater the quantity of water added, the lower the concentration of the compound in the composition, reported in milligrams per liter (mg/l) Ten plants of "Robust" variety barley were planted in each of a plurality of pots. Each pot was then either sprayed with one of the compositions of Example 9, at a composition concentration of 1,000 mg/l, or left unsprayed. For each pot sprayed, one pot was left unsprayed as a control. After the leaves of the sprayed pots were dried, the sprayed pots and the unsprayed control pots were placed in a greenhouse maintained at 21° C. All the pots were then inoculated with barley powdery mildew fungus, Erysiphe graminis. This inoculation was accomplished by distributing spores of the fungus over the leaves of the plants to be tested from plants which had previously been infected with the mildew disease. […] Again, percent control was computed by comparing the treatment scores with the scores of the untreated controls. The results are summarized in Table II under the heading "ERY GRA".

For another test, the system named is Pythium ultimum. In words: Fungal growth inhibition, treated disc on agar (PYT ULT). In kind it is cell-based. The following applies: disc dipped in 500 mg/l, 29° C.
For a further test, the system named is Rhizoctonia solani. The experiment in a line: Fungal growth inhibition, treated disc on agar (RHI SOL). In kind it is cell-based. To be noted: disc dipped in 500 mg/l, 29° C.
Another test has as its system Pyricularia oryzae. In words: whole plant or invertebrate. It is filed as in vivo. The following applies: barley, foliar, 1,000 mg/l.
The test system of a further test is Erysiphe cichoracearum. In words: Powdery mildew of cucumber, systemic root uptake (CMS). It is filed as in vivo. The following applies: 45 ml of 250 mg/l, 8 days after inoculation. The method, then: (§2) Compositions containing Compounds Nos. 1-81 were prepared by dissolving 0.24 grams of each of the compounds in 8 ml of acetone or other suitable inert solvent. Each of the resultant solutions was treated with 3 drops of TWEEN 20 (ethoxylated ethylene sorbitan monolaurate, a non-ionic surfactant)(I.C.I.), and water was added to form an emulsion. The degree of dilution with water was dictated by the desired concentration of the compound in the composition. The greater the quantity of water added, the lower the concentration of the compound in the composition, reported in milligrams per liter (mg/l) […] Upon reaching these ages, the plants were either treated with 45 ml of 250 mg/l concentration of the compositions of Example 9 or were left untreated. The untreated plants were used as controls. The 45 ml compositions saturated the soil of the treated pots without significant loss through drainage into the saucers below the pots. Twenty-four hours after the treatment with the compositions, both the barley and cucumber plants in all the pots, those treated and those untreated, were inoculated with powdery mildew fungus. This was accomplished by tapping leaves of previously infected barley and cucumber plants over the treated and untreated pots containing the barley and cucumber plants, respectively, to distribute spores of the fungus over the plants tested. […] Intermediate ratings were assigned depending on the degree of disease. […] The results of the powdery mildew disease control of barley are reported under the heading of "BMS". The results for cucumber mildew control are reported under the heading "CMS".

The test system of test [2] is Erysiphe graminis. In words: Powdery mildew of barley, systemic root uptake (BMS). The following applies: 45 ml of 250 mg/l, 8 days after inoculation. It is filed as in vivo. The method, then:
as §2

The next test concerns Colletotrichum gossypii. The experiment in a line: Fungal growth inhibition, treated disc on agar (COL GOS). It is filed as cell-based. The following applies: disc dipped in 500 mg/l, 29° C.
The next test deals with Uromyces phaseoli. The experiment in a line: Bean rust fungus eradicant test (URO PHA). In kind it is in vivo. The following applies: pinto bean, eradicant spray 2 days after inoculation, 1,000 mg/l. The method, then: Compositions containing Compounds Nos. 1-81 were prepared by dissolving 0.24 grams of each of the compounds in 8 ml of acetone or other suitable inert solvent. Each of the resultant solutions was treated with 3 drops of TWEEN 20 (ethoxylated ethylene sorbitan monolaurate, a non-ionic surfactant)(I.C.I.), and water was added to form an emulsion. The degree of dilution with water was dictated by the desired concentration of the compound in the composition. The greater the quantity of water added, the lower the concentration of the compound in the composition, reported in milligrams per liter (mg/l) A plurality of pots were each planted with two pinto bean plants, Phaseolus vulgaris, each, susceptible to rust disease. When the plants were 7 days old, at the primary leaf stage of growth, they were all sprayed with a suspension containing 20,000 spores of the bean rust fungus, Uromyces phaseoli, per ml. All the pots were then incubated in a controlled environmental chamber, maintained at 99% humidity and 21° C., for 24 hours to allow infection to occur. The plants were then removed from the incubator and allowed to dry. Two days after inoculation each of the infected plants was then either sprayed with one of the compositions of Example 9, at a dosage of 1,000 mg/l, or left unsprayed. The unsprayed plants acted as controls. All of the sprayed and unsprayed plants were then placed in a greenhouse at 21° C. for nine days to allow the disease to develop. […] Control of disease was determined by comparing treated plants with the untreated controls. The results, expressed as percent reduction of disease, are summarized in Table II under the heading "URO PHA".

The next test deals with Erysiphe polygoni. The experiment in a line: Powdery mildew on pinto bean, foliar application (ERY POL). In kind it is in vivo. The following applies: similar procedure as barley (1,000 mg/l). The method, then: as §1, with “GRA". Using a similar procedure as described above for the barley, pinto bean plants were prepared, treated and inoculated with the fungus Erysiphe polygoni. The results of this testing are summarized in Table II under the heading "ERY POL".” for “GRA".”

Source text for Pythium ultimum: (§3) Filter paper discs, each 11 mm. in diameter, were dipped in each of the test solutions. The discs were allowed to air dry to drive off the acetone solvent. A number of untreated discs were used as controls.
(§4) The treated and untreated discs were then placed on agar plates and one of the following fungus species: Septoria nodorum (SEP NOD), Botrytis cinerea (BOT CIN), Fusarium oxysporum (FUS OXY), Pythium ultimum (PYT ULT), Rhizoctonia solani (RHI SOL), Colletotrichum gossypii (COL GOS), and Scierotinia minor (SCL MIN), was added to the center of each disc in the form of a culture plug with the fungus mat in contact with the paper of the test disc. Cercosporidium personatum (CER PER), was added to discs as a spore suspension (20,000 spores/ml) to the disc (two drops of spore suspension per disc), rather than a mycelial culture plug. The plates were then incubated at 29° C. in an oven.
(§5) With the exception of the discs containing Cercosporidium personatum, the discs were evaluated by first measuring the radius from the center of the fungus colony on the treated discs and on the untreated discs. Percent growth inhibition of each of the compounds tested was determined as a function of the difference between the radius of the fungus colony on the treated disc versus the radius of the fungus colony on the untreated disc.
Source text for Rhizoctonia solani: as §3, §4, §5

In the case of `CCCCC(C#N)(CCc1ccc(OC)cc1)c1ccccn1` (centres unmarked) [Compound 27], in the test with Helminthosporium sativum, the “Percent Reduction of Disease, HEL SAT” value is 90%. In addition, in the test on Scierotinia minor, the “Percent Growth Inhibition, SCL MIN” value turned out to be 93%. Further, the “Percent Growth Inhibition, BOT CIN” value with Botrytis cinerea is recorded as 78%. In addition, the “Percent Growth Inhibition, SEP NOD” value with Septoria nodorum is on record as 10%. Also, the “Percent Growth Inhibition, FUS OXY” value in the test with Fusarium oxysporum is listed as 10%. In addition, the “Percent Reduction of Disease, ERY GRA” value in the test with Erysiphe graminis [1] stood at 90%. The “Percent Growth Inhibition, PYT ULT” value with Pythium ultimum was determined as 10%. Also, the “Percent Growth Inhibition, RHI SOL” value in the test with Rhizoctonia solani is 5%. In the test with Pyricularia oryzae, the “Percent Reduction of Disease, PYR ORY” value came to 70%. For the same compound, in the test on Erysiphe cichoracearum, the “Percent Reduction of Disease, CMS” value came to 0%. Moreover, the “Percent Reduction of Disease, BMS” value in the test on Erysiphe graminis [2] came out at 0%. For the same compound, the “Percent Growth Inhibition, COL GOS” value with Colletotrichum gossypii was found to be 20%. Moreover, the “Percent Reduction of Disease, URO PHA” value with Uromyces phaseoli turned out to be 100%. In the test with Erysiphe polygoni, the “Percent Reduction of Disease, ERY POL” value was 90%.

The record behind these values is US5945436A, “Pyridylmethyl nitriles, amides and thioamides useful as fungicides” (Uniroyal Chemical Company, Inc., priority 1997, dated 1999).
